According to ChEMBL document CHEMBL2311368 (Bioorg Med Chem Lett, 2013):

What was measured:
[1] = target: Tyrosine-protein kinase Lck (Homo sapiens, UniProt P06239); assay: Inhibition of human LCK using poly[Glu:Tyr] (4:1) peptide substrate
[2] = target: Mast/stem cell growth factor receptor Kit (Homo sapiens, UniProt P10721, T670I); assay: Inhibition of human c-Kit T670I mutant using poly[Glu:Tyr] (4:1) peptide substrate
[3] = target: T1, Mast/stem cell growth factor receptor Kit (Homo sapiens, UniProt P10721); assay: Inhibition of human c-Kit using poly[Glu:Tyr] (4:1) peptide substrate
[4] = target: T2, Receptor-type tyrosine-protein kinase FLT3 (Homo sapiens, UniProt P36888); assay: Inhibition of human FLT3 using EAIYAAPFAKKK peptide substrate
T2 sequence (P36888 whole entry): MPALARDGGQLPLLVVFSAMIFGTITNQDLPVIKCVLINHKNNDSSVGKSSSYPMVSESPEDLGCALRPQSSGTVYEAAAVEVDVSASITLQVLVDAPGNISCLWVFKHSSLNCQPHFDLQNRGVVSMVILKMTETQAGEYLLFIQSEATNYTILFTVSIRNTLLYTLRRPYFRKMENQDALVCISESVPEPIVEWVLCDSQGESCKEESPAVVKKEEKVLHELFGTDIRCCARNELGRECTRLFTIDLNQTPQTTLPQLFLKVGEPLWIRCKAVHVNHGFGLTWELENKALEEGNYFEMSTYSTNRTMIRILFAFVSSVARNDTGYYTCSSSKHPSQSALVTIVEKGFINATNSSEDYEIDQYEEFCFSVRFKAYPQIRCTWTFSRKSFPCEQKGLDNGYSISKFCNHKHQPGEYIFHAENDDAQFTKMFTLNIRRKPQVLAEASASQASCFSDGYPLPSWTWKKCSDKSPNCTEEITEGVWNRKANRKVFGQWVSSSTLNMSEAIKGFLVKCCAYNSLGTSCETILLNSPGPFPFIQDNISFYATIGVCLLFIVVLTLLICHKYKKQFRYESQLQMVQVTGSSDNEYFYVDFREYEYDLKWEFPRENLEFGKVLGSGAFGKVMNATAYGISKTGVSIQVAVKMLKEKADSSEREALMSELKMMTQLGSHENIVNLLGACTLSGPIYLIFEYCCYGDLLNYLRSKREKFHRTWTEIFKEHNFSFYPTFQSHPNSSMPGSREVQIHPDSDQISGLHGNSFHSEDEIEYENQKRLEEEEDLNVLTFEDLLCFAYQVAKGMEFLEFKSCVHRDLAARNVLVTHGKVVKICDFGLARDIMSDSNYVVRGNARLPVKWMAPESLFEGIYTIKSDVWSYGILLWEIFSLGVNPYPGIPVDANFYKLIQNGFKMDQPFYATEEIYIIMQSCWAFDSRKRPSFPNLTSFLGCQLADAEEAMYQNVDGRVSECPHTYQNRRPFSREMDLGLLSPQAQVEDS

[5] = target: T1, Mast/stem cell growth factor receptor Kit; assay: Binding affinity to human c-Kit
[6] = target: T3, Discoidin domain-containing receptor 2 (Homo sapiens, UniProt Q16832); assay: Inhibition of human DDR2 using KKSRGDYMTMQIG peptide substrate
T3 sequence (Q16832 whole entry): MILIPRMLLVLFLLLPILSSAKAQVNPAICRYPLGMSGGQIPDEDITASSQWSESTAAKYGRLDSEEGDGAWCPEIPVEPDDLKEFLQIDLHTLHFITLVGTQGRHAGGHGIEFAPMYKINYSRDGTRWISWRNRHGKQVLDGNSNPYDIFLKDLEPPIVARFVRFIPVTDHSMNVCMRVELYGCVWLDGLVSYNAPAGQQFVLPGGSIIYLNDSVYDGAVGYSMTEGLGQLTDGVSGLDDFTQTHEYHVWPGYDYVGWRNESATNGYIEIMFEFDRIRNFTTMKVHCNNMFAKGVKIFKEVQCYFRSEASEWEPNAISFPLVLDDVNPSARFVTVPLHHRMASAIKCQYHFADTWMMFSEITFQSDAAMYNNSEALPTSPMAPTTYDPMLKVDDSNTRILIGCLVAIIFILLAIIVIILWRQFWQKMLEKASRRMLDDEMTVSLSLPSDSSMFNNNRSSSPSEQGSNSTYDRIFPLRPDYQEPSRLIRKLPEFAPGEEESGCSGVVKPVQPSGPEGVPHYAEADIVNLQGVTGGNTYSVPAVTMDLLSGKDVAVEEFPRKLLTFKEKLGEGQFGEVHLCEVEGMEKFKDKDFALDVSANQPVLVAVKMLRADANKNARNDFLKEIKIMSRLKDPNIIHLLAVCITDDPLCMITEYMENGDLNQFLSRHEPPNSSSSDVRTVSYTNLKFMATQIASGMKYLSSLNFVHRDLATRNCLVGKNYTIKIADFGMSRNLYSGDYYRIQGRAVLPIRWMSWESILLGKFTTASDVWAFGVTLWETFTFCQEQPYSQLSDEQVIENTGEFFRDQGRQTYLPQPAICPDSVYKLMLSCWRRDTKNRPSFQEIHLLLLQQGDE

[7] = target: Mast/stem cell growth factor receptor Kit (Homo sapiens, UniProt P10721, V654A); assay: Inhibition of human c-Kit V654A mutant using poly[Glu:Tyr] (4:1) peptide substrate
[8] = target: T4, Platelet-derived growth factor receptor beta (Homo sapiens, UniProt P09619); assay: Inhibition of human PDGFRbeta using poly[Glu:Tyr] (4:1) peptide substrate
[9] = target: T2, Receptor-type tyrosine-protein kinase FLT3; assay: Binding affinity to human FLT3
[10] = target: T3, Discoidin domain-containing receptor 2
Description: Binding affinity to human DDR2

[11] = target: T4, Platelet-derived growth factor receptor beta; assay: Binding affinity to human PDGFRbeata

Mast/stem cell growth factor receptor Kit (Homo sapiens, UniProt P10721, T670I), sequence (P10721 26-976 T670I limits assumed): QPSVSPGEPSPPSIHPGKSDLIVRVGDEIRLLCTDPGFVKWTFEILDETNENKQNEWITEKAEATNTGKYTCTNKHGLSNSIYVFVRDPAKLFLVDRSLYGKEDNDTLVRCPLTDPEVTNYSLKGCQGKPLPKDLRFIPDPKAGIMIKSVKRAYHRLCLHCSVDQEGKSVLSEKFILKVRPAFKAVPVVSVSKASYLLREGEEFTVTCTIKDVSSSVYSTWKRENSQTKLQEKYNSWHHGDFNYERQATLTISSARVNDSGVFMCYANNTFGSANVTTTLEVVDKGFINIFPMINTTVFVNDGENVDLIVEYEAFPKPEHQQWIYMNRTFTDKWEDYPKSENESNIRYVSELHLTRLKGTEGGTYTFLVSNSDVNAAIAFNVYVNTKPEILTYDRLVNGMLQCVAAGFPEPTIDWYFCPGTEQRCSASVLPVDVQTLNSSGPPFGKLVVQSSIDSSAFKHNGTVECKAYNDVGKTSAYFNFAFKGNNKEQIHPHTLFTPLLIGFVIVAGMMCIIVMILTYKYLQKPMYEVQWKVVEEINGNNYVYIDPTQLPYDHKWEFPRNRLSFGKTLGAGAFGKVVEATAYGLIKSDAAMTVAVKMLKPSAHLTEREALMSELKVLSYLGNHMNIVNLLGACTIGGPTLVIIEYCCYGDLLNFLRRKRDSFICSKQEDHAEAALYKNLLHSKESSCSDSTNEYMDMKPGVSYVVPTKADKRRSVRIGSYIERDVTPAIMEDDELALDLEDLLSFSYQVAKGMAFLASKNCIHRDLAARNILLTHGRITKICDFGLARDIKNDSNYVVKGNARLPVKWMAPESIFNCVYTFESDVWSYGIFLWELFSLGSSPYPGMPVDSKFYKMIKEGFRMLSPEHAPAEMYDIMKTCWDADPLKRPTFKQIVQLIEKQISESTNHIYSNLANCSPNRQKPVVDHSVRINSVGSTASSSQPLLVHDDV
T4 sequence (P09619 whole entry): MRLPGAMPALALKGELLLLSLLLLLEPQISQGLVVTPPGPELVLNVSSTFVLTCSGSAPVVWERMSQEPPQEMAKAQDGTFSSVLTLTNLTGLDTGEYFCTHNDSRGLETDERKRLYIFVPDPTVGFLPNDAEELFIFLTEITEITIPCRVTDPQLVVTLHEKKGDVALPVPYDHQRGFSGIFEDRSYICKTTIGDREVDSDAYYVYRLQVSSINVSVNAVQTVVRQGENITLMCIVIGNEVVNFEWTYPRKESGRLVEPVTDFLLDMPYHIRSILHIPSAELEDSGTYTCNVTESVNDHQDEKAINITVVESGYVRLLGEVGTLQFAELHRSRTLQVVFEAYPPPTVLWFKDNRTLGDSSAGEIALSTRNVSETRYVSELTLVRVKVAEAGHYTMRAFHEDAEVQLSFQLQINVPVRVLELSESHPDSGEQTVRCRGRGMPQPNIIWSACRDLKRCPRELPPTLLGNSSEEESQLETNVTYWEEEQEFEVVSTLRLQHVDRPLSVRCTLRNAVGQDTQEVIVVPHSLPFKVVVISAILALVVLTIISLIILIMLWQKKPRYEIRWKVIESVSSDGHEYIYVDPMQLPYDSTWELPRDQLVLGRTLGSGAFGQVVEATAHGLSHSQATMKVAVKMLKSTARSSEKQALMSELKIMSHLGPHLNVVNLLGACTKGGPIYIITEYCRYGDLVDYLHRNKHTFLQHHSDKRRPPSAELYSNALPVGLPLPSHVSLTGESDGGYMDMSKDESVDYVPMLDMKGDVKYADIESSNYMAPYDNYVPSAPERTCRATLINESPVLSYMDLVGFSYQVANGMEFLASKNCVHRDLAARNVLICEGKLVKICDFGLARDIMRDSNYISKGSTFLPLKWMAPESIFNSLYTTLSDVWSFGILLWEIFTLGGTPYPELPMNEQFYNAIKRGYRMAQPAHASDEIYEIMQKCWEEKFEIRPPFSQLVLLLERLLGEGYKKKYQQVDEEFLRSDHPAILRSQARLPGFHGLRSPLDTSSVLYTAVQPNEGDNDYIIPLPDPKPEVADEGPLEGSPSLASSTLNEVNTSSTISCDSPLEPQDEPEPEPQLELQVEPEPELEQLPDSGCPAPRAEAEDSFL
T1 sequence (P10721 whole entry): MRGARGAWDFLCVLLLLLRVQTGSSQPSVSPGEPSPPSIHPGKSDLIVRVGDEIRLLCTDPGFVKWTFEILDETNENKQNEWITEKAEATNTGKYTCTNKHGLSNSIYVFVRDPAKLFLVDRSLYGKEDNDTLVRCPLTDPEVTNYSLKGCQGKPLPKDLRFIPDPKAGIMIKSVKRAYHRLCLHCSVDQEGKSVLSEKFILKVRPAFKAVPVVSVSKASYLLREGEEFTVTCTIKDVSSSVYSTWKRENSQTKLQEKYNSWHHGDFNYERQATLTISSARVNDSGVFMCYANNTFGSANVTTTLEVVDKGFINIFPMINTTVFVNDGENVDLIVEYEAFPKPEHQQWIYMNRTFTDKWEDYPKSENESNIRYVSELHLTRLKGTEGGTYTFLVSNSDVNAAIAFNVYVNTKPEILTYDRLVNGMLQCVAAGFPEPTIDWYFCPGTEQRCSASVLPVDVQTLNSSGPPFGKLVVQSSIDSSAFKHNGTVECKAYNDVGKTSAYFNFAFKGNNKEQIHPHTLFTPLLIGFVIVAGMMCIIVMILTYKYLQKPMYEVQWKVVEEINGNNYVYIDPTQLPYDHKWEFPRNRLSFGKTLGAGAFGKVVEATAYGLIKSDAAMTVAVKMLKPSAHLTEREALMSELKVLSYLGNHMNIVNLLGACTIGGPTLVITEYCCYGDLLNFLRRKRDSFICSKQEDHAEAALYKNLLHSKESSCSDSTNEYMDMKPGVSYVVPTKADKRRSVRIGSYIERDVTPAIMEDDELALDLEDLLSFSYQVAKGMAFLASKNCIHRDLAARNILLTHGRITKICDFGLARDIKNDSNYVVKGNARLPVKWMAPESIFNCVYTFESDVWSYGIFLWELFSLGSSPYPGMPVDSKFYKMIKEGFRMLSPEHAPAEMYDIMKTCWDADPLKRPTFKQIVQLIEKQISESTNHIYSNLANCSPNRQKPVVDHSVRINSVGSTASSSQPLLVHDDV
Tyrosine-protein kinase Lck, sequence (P06239 whole entry): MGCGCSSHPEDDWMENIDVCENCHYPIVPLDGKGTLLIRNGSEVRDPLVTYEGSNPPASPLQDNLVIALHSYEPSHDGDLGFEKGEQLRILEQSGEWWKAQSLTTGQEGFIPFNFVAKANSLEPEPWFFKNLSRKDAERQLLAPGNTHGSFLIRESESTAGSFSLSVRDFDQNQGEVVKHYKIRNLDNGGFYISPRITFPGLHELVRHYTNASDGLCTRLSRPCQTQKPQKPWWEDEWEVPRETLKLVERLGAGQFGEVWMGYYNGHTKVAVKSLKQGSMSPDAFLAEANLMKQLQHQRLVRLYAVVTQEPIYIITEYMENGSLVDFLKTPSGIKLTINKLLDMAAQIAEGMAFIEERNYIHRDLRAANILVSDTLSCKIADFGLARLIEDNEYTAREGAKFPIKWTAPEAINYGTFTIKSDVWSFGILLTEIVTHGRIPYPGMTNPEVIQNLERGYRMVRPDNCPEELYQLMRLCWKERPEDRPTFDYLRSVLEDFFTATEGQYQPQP
Mast/stem cell growth factor receptor Kit (Homo sapiens, UniProt P10721, V654A), sequence (P10721 26-976 V654A limits assumed): as the sequence (P10721 26-976 T670I limits assumed) above, with V629A, I645T counted along it

Row | IC50 [1] | IC50 [2] | IC50 [3] | IC50 [4] | Kd [5] | IC50 [6] | IC50 [7] | IC50 [8] | Kd [9] | Kd [10] | Kd [11] | SMILES
1 | 11100 nM | > 1000 nM | 9.96 nM | 118 nM | 3.5 nM | 179 nM | > 400 nM | > 5000 nM | 58 nM | 14 nM | 8.5 nM | Cc1cn(-c2cc(F)cc(NC(=O)c3ccc(C)c(Nc4nccc(-c5cccnc5)n4)c3)c2)cn1
2 | 44600 nM | > 1000 nM | 32.5 nM | 974 nM | 4.4 nM | 653 nM | > 1000 nM | 35400 nM | 1400 nM | 320 nM | 7.2 nM | Cc1cn(-c2cccc(NC(=O)c3ccc(C)c(Nc4nccc(-c5cccnc5)n4)c3)c2)cn1
3 | 1450 nM | > 1000 nM | 54.9 nM | 882 nM | 14 nM | 17.2 nM | > 1000 nM | 768 nM | 1200 nM | 5.6 nM | 12 nM | Cc1cc(NC(=O)c2ccc(C)c(Nc3nccc(-c4cccnc4)n3)c2)cc(-n2cnc(C)c2)c1
